Experiments:
uteri = assay: 6 weeks spayed rats, protection of bone and heart: uterine weight; assay type: in vivo, rat; conditions: spayed female Sprague-Dawley CD rats, 6 weeks treatment; n = 2
Description: One day after a Taconic Farm surgery, spayed or pseudo-spayed female Sprague-Dawley CD rats (weighted 240-275 g) were obtained. These animals were fed with food and sufficient water, 3 or 4 rats/cage, in a 12/12 (light/dark) cycle. After one day, all items of investigative treatments were started to these animals. The animals were administered 7 days/week following the instruction, continuously for 6 weeks. In each investigation, one group of rats that were not treated, comparably aged, and subjected to pseudo-surgeries was used as an untreated and estrogen-sufficient control group.
All treatments were conducted with specified concentrations in physiological saline solution containing 1% Tween 80, so that the amount of the treatment was 0.1 mL/100 g body weight. Then 176 estradiol was dissolved in corn oil (20 μg/mL), and administered subcutaneously to rats, 0.1 mL/rat. The result was measured according to the average body weight of each group, and the animals were dosed once […].
Five weeks after the beginning of the treatment and one week before the end of the treatment, the bone mineral density (BMD) of each rat was evaluated. The total densities and trabecular densities of the proximal ends of tibias in the anaesthetized rats were evaluated using XCT-960M (pQCT; Stratec Medizintechik, Pforzheim, Germany). The measuring procedure is shown as follows: 15 minutes before scanning, each rat was anaesthetized by intraperitoneal injection of 45 mg/kg ketamine, 8.5 mg/kg xylazine, and 1.5 mg/kg acepromazine.
The right hindlimb was drawn over the polycarbonate test tube with a diameter of 25 mm, and tied up on the acrylic acid scaffold, so that the anklebone was situated as a right angle and the knee joint was kept horizontally. The polycarbonate test tube was fixed on the sliding platform, so as to be orthogonal with the aperture of pQCTR. The platform was adjusted, so that the distal end of femur and the proximal end of tibia were within the scanning zone. The plane scan image was set as an image with a length of 10 mm and a linear resolution of 0.2 mm.
Soft tissues were eliminated automatically using iterative algorithm. The density (total density) of the remaining bone was shown in a unit of mg/cm^3. In a concentric spiral separator, 55% of the external surface of the bone was peeled off. The density (i.e. trabecular density) of the remaining bone was shown in a unit of mg/cm^3. One week after BMD evaluation, the rats were sacrificed by CO2 asphyxiation. Blood was collected so as to measure cholesterol. Uteri were extracted and weighted. Total cholesterol was measured by Boehringer-Mannheim Hitachi 911 clinic analyzer utilizing a cholesterol/HP kit. A statistical comparison was carried out by way of one-way ANOVA of Dunnet's test.

[1] = test system: LDL cell-mediated oxidation; assay: Inhibition of LDL oxidation, antioxidant activity (TBARS); assay type: cell-based, Swine; conditions: Sus scrofa; compound 5 μM, 12.5 μg/mL LDL, 37° C., 4 hours; n = 2; read-out: Oxidation inhibition rate
Source text: Swine aortas were obtained from a slaughterhouse, washed, and then transferred into cold PBS. Epithelial cells were collected from the aortas. Particularly, in order to collect the epithelial cells, intercostal blood vessel of the aorta was knotted, and one end of the aorta was clamped with a forceps. Fresh 0.2% collagenase (Sigma Type I) which had been filtered for sterilization was placed into the blood vessel, and another end of the blood vessel was clamped with a forceps so as to form a closed system. The aortas were cultured at 37° C. for 15-20 min, then collagenase solution was collected and centrifuged for 5 min. The resultant precipitate was resuspended in 7 mL epithelial cell medium (i.e. a DMEM/Ham'S F12 medium without phenolsulfonphthalein but supplemented with carbon stripped FBS (5%)), then seeded in a 100 mm dish and cultured at 37° C., 5% CO2. Twenty minutes later, the cells were rinsed with PBS, and a fresh medium was added. The above process was repeated for 24 hours. After about one week, the cells were confluent. Usually, these epithelial cells were fed twice per week, and seeded with a ratio of 1:7 after the action of trypsin during confluence. In the case that the compound (5 μM) to be evaluated existed, 12.5 μg/mL LDL cell-mediated oxidation was carried out at 37° C. for 4 hours. The result was expressed as the percentage of oxidation inhibition, which was determined by analyzing free aldehyde by the TBARS (Thiobarbituric acid reactive substances) method.

[2] = test system: MCF-7 cells or BG-1 cells; assay: Effect on the proliferation of breast cancer cells (MCF-7 or BG-1 cells in nude mice); assay type: in vivo; conditions: Mus musculus; n = 2
Description: Using standard pharmacological experimental methods easily found in reference documents, the capabilities of the inventive compounds to treat and inhibit different types of malignant tumors or over-proliferation diseases can be evaluated.
Spayed athymic nu/nu (nude) mice were used. One day before the injection of tumor cells, a release-controlled pill containing 0.36-1.7 mg of β estradiol (60- or 90-day release) or a placebo was implanted into the animal. The pill was introduced into the endo-sculpture zone subcutaneously using a 10-scaled precise rotor. Next, 1×10^7 MCF-7 cells or 1×10^7 BG-1 cells were injected into breast tissues of the mice subcutaneously. The cells were mixed with matrigel with a same volume, and the latter was a liquid preparation of basilar membrane substrate, so as to facilitate tumor construction. One day after the implantation of the tumor cells (i.e. an inhibition protocol), or after the tumor had reached a certain volume (i.e. a treatment protocol), the tested compounds could be evaluated through administration. The saline containing the compound in a 1% Tween-80 vehicle was administered intraperitoneally or orally every day. The volumes of the tumors were evaluated every 3 or 7 days.

[3] = test system: DU-145 prostate cancer cells; assay: Effect on the proliferation of prostate cancer cells; assay type: cell-based; conditions: Homo sapiens, DU-145, 120 h; 5 days, Cyquant kit; n = 2
Description: DU-145 prostate cancer cells were plated onto a 96-well dish, in a density of 2×10^3 cells/well in a MEM Eagles medium without phenol red. Such a medium comprises Earles' balanced salt, 1% antibiotic-antifungal agent, 2 mM glutamine, 0.1 mM nonessential amino acids, 1 mM sodium pyruvate and 10% carbon stripped FCS. The next day, the compound and vehicle (0.2% DMSO) were added, and the medium was refreshed every 48 hours. The cultivation was stopped 5 days later. Proliferation was analyzed using the above Cyquant kit.

Q: How did the “percentage of weight gain of uteri” value (uteri) turn out when `O=C(c1ccc(OCC(=O)N2CCOCC2)cc1)c1oc2cc3c(cc2c1-c1ccc(O)cc1)CCCO3` [2-[4-(morpholine-2-oxo-ethoxy)benzoyl]-3-(4-hydroxyphenyl)-6,7-dihydrogen-5H-furo[3,2-g]chromene] was run?
A: 6.2%

Q: What about the inhibition at 5 µM [1] of the same compound?
A: 12.4%

Q: What about the IC50 [2] of the same compound?
A: 46.7 µM

Q: And the IC50 [3]?
A: 23.7 µM

Q: What does the source list for `CN(C)CCOc1ccc(C(=O)c2oc3cc4c(cc3c2-c2ccc(O)cc2)CCCO4)cc1` [Example 58, 2-[4-(dimethylaminoethoxy)benzoyl]-3-(4-hydroxyphenyl)-6,7-dihydrogen-5H-furo[3,2-g]chromene]?
A: percentage of weight gain of uteri (uteri): 3.2%; inhibition at 5 µM [1]: 6.8%; IC50 [2]: 4.6 µM; IC50 [3]: 43.6 µM

Q: Which results are given for `O=C(c1ccc(OCC(=O)N2CCCCC2)cc1)c1oc2cc3c(cc2c1-c1ccc(O)cc1)CCCO3` [Example 60, 2-[4-(piperidine-2-oxo-ethoxy)benzoyl]-3-(4-hydroxyphenyl)-6,7-dihydrogen-5H-furo[3,2-g]chromene]?
A: percentage of weight gain of uteri (uteri): 12.4%; inhibition at 5 µM [1]: 22.6%; IC50 [2]: 11.5 µM; IC50 [3]: 14.5 µM

Q: `CCN(CC)CCOc1ccc(C(=O)c2oc3cc4c(cc3c2-c2ccc(O)cc2)CCCO4)cc1` [Example 56, 2-[4-(diethylaminoethoxy)benzoyl]-3-(4-hydroxyphenyl)-6,7-dihydrogen-5H-furo[3,2-g]chromene] was tested. Which “percentage of weight gain of uteri” value (uteri) did it give?
A: 15.1%

Q: And the inhibition at 5 µM [1]?
A: 5.1%

Q: What about the IC50 [2] of the same compound?
A: 22.1 µM

Q: What about the IC50 [3] of the same compound?
A: 17.1 µM

Q: What does the source list for `CCN(CC)C(=O)COc1ccc(C(=O)c2oc3cc4c(cc3c2-c2ccc(O)cc2)CCCO4)cc1` [Example 62, 2-[4-(diethylamino-2-oxo-ethoxy)benzoyl]-3-(4-hydroxyphenyl)-6,7-dihydrogen-5H-furo[3,2-g]chromene]?
A: percentage of weight gain of uteri (uteri): 23.9%; inhibition at 5 µM [1]: 36.8%; IC50 [2]: 25.2 µM; IC50 [3]: 35.2 µM

Q: For `CN(C)C(=O)COc1ccc(C(=O)c2oc3cc4c(cc3c2-c2ccc(O)cc2)CCCO4)cc1` [Example 64, 2-[4-(dimethylamino-2-oxo-ethoxy)benzoyl]-3-(4-hydroxyphenyl)-6,7-dihydrogen-5H-furo[3,2-g]chromene], which “percentage of weight gain of uteri” value (uteri) is on record?
A: 35.5%

Q: What about the inhibition at 5 µM [1] of the same compound?
A: 44.9%

Q: What about the IC50 [2] of the same compound?
A: 5.6 µM

Q: What about the IC50 [3] of the same compound?
A: 8.5 µM

From US8877949B2, “Furo[3,2-g]chromene compounds and uses thereof” (Shenyang Pharmaceutical University, priority 2010, dated 2014)
